Reference: patent publication US20130042333A1, “MARKERS FOR CANCER PROGNOSIS AND THERAPY AND METHODS OF USE” (priority 2011, published 2013)

Key:
[1] = test system: Stat1 (total, phospho-Tyr701, phospho-Ser727), Ifi27, Ifi44, Lcn2, Oas1; conditions: T330 breast cancer xenograft; after chemotherapy; compared with A/C combination
Experimental: (§1) Tumors were collected from 5 independent mice at different time points: prior to treatment (=controls with volume<200 mm3); post-treatment residual tumors (=nodules with volume<32 mm3 until minimal palpation); recurrent tumors (=regrowth with volume>62.5 mm3) Tumors or nodules were processed for (1) FFPE (formalin-fixed paraffin-embedded) or for (2) snap frozen samples: samples were cut into 3-4 mm pieces (at least 3 fragments) and snap-frozen in liquid nitrogen, then transferred to −80° C. for storage. Samples were allocated for histology, microdissection and RNA analyses.

[2] = test system: HBCx-14 breast tumor xenograft; conditions: A/C 2/100 or C 100 mg/kg, x2 cycles
From the text: Tumor xenografts were generated by direct subcutaneous grafting into immunodeficient mice of human tumor surgical samples with informed written consent of the patients and maintained by serial transplantation. […] They are thus clinically relevant tumor models, as opposed to xenografts produced from tumor cell lines that have been obtained by in vitro culture and often passaged for many years (Fiebig, H. H. et al. Eur J Cancer 40, 802-820, 2004; Marangoni E., Vincent-Salomon A., Auger N. et al. Clin Cancer Res. 2007 Jul. 1; 13:3989-98).
Chemotherapeutic drugs were administered by intraperitoneal route according to the following doses and schedules: adriamycin, 2 mg/kg, q3wk (Doxorubicin®, Teva Pharmaceuticals, France) and Cyclophosphamide, 100 mg/kg, q3wk (Endoxan®, Baxter, France). Irinotecan (Campto®, Pfizer Holding France), 50 mg/kg, q4dx4. Etoposide 12 mg/kg, qdx3. Ifosfamide 90 mg/kg, qdx3. bPARP inhibitor (AZD2281, Sequoia Research Products, UK) at 50 mg/kg (ip; qdx14). A second treatment cycle was performed with PARP inhibitor at 50 mg/kg (ip qdx5) during the nodule phase. Other pharmacological inhibitors are tested and administrated at the nodule phase: JAK1/2 Inhibitor (CP-690550) at 15 mg/kg (po qdx14), Epigallocatechin gallate (ECGC) (Sequoia Research Products, UK) at 30 mg/kg (ip qdx28), HDAC inhibitor (Trichostatine A), Retinoic acid at 50 mg/kg (ip qdx28) (Sigma-Aldrich, France). Breast tumor xenograft models were transplanted into 5-week old female Swiss nude mice, as described above, one tumor being transplanted into 5-10 recipients. When tumors reached a volume of 60-250 mm3, mice were individually identified and randomly assigned to the control or treated groups (12 to 20 mice per group). Tumor volume was evaluated by measuring two perpendicular diameters of the tumor, with a calliper, biweekly during the treatment period and once a week during the follow-up period. The formula TV (mm3)=[length (mm)×width (mm)2]/2 was used, where the length and the width were the longest and the shortest diameters of the tumor, respectively. All animals were weighted biweekly during the treatment period and the follow-up period. Mice were ethically sacrificed when the tumor volume reached 2000 mm3 Individual tumor growth delays (TGD) is calculated as the time in days required for individual tumors to reach 3- to 5-fold the initial median tumor volume. The tumor growth delay index (TGDI) is calculated as the median growth delay in the treated group divided by the median growth delay in the control group. The percentage ratio between the mean tumor volume of a treated group (T) and the mean tumor volume of the control group (C) is calculated.
as §1
Three categories of responders were defined based on the TGDI and T/C values.

O=P1(N(CCCl)CCCl)NCCCO1 (centres unmarked) [C, Cyclophosphamide]
total and phosphorylated Stat1 protein (western blotting) [1]: same increase in Stat 1 protein amount and phosphorylation level
% Nodules [2]: 100%
% Tumor Relapse [2]: 67%
Median Nodule Apparition Time [2]: 11
Median Time of Relapse [2]: 53
T/C % D21 [2]: 2%
TGDI [2]: 6.66
median TGD × 5 [2]: 82.00 days
